The test system of test [1] is RELA occupancy on the chromatin (786-O cells). As to the kind of experiment: RELA ChIP after bortezomib, 786-O. It counts as cell-based, human. As to the method: (§1) Colony formation of parental (WT) or PBRM1 knockout (KO) 786-O cells expressing shRNA against non-targeting control (NC), RELA, or NFKB1 cultured with a) 10% or b) 2% serum. c) Gene expression changes of NF-κB target genes in 786-O cells treated with 0.006 μM bortezomib (BTZ) or 0.6 µM Bay 11-7085 for 24 hours (n=3 technical replicates). * p-value<0.05 (two-sided t-test). […] A positive log fold change refers to gain in bortezomib treatment over DMSO. g) Colony formation of 786-O isogenic cells and h) NCC432 isogenic cells treated with bortezomib for a week. Tumor formation of isogenic 786-O cells (i) and NCC432 cells (j) treated with PBS control or 0.5 mg/kg bortezomib (BTZ) in NSG mice. (n=10 tumors per group for 786-O, and n=16 tumors for NCC432 PBS EV group and 12 tumors for NCC432 PBS PBRM1 group and 14 tumors for both NCC432 EV and PBRM1 BTZ groups). Data are presented as mean values+/−SEM. k) Model for the study.
Data are presented as median+/−25%. Lower whisker is smallest observation greater than or equal to 25% quantile-1.5*interquantile range (IQR). Upper whisker represents the largest observation less than or equal to 75%+1.5*IQR. Amount of normalized RELA protein in the c) input or d) co-immunoprecipitated with SMARCA4 from 3 independent runs. […]

The subject of the next test is NCC432 cells. As to the kind of experiment: Colony formation, NCC432 isogenic cells. It counts as cell-based, human. The note with it: NCC432, a week. As to the method:
as §1
In 6 wells, 1,000 786-O cells or 2,500 NCC432 cells were seeded and treated with DMSO control or increasing concentration of drugs for 7 days and stained with crystal violet. For drug screening, we used SGC epigenetic probe collection. For RNA-seq with bortezomib treatment, 2×10^5 786-O cells were treated with DMSO or 0.005 μM bortezomib and harvested 9 hours after treatment for RNA extraction. […]

With `CC(C)C[C@H](NC(=O)[C@H](Cc1ccccc1)NC(=O)c1cnccn1)B(O)O` [bortezomib], the “RELA occupancy (figure title)” value in test [1] (786-O, 0.005 μM bortezomib, 9 hours) is given as “abrogates RELA occupancy”. The “RELA occupancy on the chromatin, PB1 KO” value in test [1] (PB1 KO 786-O cells, ChIP-qPCR) is recorded as “profound reduction of RELA occupancy”. Also, the “reduction of colony formation, PB1-deficient vs PB1-proficient isogenic cells” value with NCC432 cells is “preferential reduction of colony formation”.

Values taken from patent US20260357349A1, “METHODS OF IDENTIFYING AND TREATING CANCER” (Agency for Science, Technology and Research, priority 2022, published 2026).
